The record followed here is patent US20230257700A1, “FUNCTIONAL HUMAN CORNEAL ENDOTHELIAL CELLS AND APPLICATION THEREOF” (KYOTO PREFECTURAL PUBLIC UNIVERSITY CORPORATION, priority 2020, published 2023).

Assay [1] relates to PDGF-bb. In words: ELISA PDGF-bb in culture supernatant. As to conditions: for PDGF-bb in culture supernatant (weekly): #190719 P1 and P2, #190318. Type of assay: cell-based, human. An excerpt:
(§1) Lot CT09 P5 was used to assay the effects of additives to evaluate the product in a SB2-new culture method. First, using CT09 P4 (remaining cells for FBS lot assay), the culture supernatant was collected the day before the passage (Day 42), and then the CT09 P5 was passaged with ECD400 (181219), followed by culturing in Nancy medium (FBS #1652794, containing ascorbic acid) under conditions 1 to 5 shown in FIG. 23 (2 wells for each 6-well plate). From the 1st week to the 5th week, the culture supernatant was collected, one well was subjected to FACS measurement on Day 34 (190122), and the culture supernatant was measured for IL-8 and PDGF-bb by ELISA.
(§2) As to culture conditions, the Y addition timing is examined at P1 and P2 in #190719, and the Y addition timing is examined at P1 in #190802.
(§3) Using P4 of #190719, the culture supernatant was collected at 1 to 5 w to examine the difference in accordance with the presence or absence of the ROCK inhibitor. Donor information was as follows: #190719S/D, AEB-301, OSCN/ODCN, ECD=3448/3289, COD: Bleomycin Lung Toxicity 2/2 ChemoTreatments, D-P=11:28, D-C=8D.
For orientation: An ELISA detects its analyte on a solid surface through an enzyme-linked reagent.

The subject of assay [2] is human corneal endothelial cells (donor AEM-510). In words: adhesion enhancement at P0 with or without Y addition. The assay is classed as cell-based. Here is the method: Next, ROCK inhibitors were tested for adhesion enhancement. In order to investigate whether the enhancement of adhesion by the ROCK inhibitor is related to standard cell manufacture, cells cultured under the following conditions were compared and verified at P0 with or without Y addition.
AEM-510 (person), ECD ODCN: 3058, and OSCN: 3058 were used, which were stored at 4° C. on January 30th, corneal treatment was performed on January 31st at 10:00, OD collagenase treatment was started at 10:45, and OS collagenase treatment was started at 11:05. Thereafter, seeding was started at 14:45 and cultured with Y−, A (ascorbic acid)+for OD and Y+, A+ for OS. At 10:00 on February 4, the medium was replaced, and both eyes: Y+, A+ were photographed (phase contrast ×4, ×10).

In assay [3] the test system is cultured human corneal endothelial cells. As to the kind of experiment: FACS cell surface CD antigens and phase-contrast morphology of cultured HCEC (standard cell ratio). Type of assay: cell-based. On the procedure: Culture with 0+Y, SB2, EGF, Asc (ascorbic acid) ↓ P1 Culture with +Y, SB2, EGF, Asc ↓ P2 Culture in 4 ways with EGF(−), 0.5 ng/mL, 1 ng/mL, 5 ng/mL (+Y, SB2, Asc) ↓ Passage from each condition in P2 P3 Culture in 4 ways with EGF(−), 0.5 ng/mL, 1 ng/mL, 5 ng/mL (+Y, SB2, Asc) ↓ Passage from each condition in P3 P4 Culture in 4 ways with EGF(−), 0.5 ng/mL, 1 ng/mL, 5 ng/mL (+Y, SB2, Asc) *Trypsin (TrypLE, ThermoFisher) concentration ×10 at the time of detachment, seeding cell number ECD800 (In the above, P indicates the number of passages.)
P0 Culture two eyes collectively in 2 ways with EGF(−), 0.5 ng/mL (+Y, SB2, Asc) ↓ Passage from each condition in P0 P1 Culture in two ways with EGF(−), 0.5 ng/mL (+Y, SB2, Asc) ↓ Passage from each condition in P1 P2 Culture in two ways with EGF(−), 0.5 ng/mL (+Y, SB2, Asc) TrypLE concentration ×10 at the time of detachment, at seeding ECD800
as §2, §3
For FACS analysis, 16×10^4 cells (one type of antibody+negative control) were dispensed into Proteosave tubes and the rest were passaged. FACS required 8×10^4 cells per antibody type. Passages were seeded at an Endothelial Cell Density (ECD: cells/mm^2) of 400 (191001 time point) (24-well: 7.6×10^4 cells, 12-well: 15.2×10^4 cells, 6-well: 38×10^4 cells, T-25: 100×10^4 cells).
The FACS was started up, and an antibody solution (hereinafter light-shielded, on ice) was prepared as follows. antigen fluorescent dye Volume (μL)×sample type plus something extra (μL)
The cell suspension was centrifuged at 250×g (1,800 rpm) for 2 minutes at 4° C., the supernatant was removed using P-200, the concentration was adjusted to 4×10^6 cells/mL and suspended in FACS Buffer (+NaN3). When the suspension was less than 30 μL, it was suspended in 30 μL and 20 μL was used for the reaction and 10 μL for NC.
Twenty μL of the antibody solution and 20 μL of the suspension were mixed well by pipetting, and the tube was wrapped in aluminum to shield from light and rotated at 4° C. for 2 hours (up to 4 hours maximum) on a rotator. Centrifugation was performed at 250×g (1,800 rpm) for 2 minutes at 4° C., the supernatant was discarded, followed by washing with 100 μL of FACS Buffer (+NaN3). Centrifugation was performed at 250×g (1,800 rpm) for 2 minutes at 4° C., the supernatant was discarded, followed by suspending in 350 μL of FACS buffer (−NaN3), and transferring through a cell strainer to a 5-mL tube. NCs were suspended in FACS Buffer (−NaN3) to a total of 350 μL of the rest of the initial suspension, and transferred to a 5-mL tube through a cell strainer. During the FACS measurement, the sample was kept light-shielded and on ice, the FACS laser value and target cell range were determined, and a file was created (to follow: Open Book→Open Syringe→Green→Cytometer tab: Laser→Area scaling for HCEC label: FSC 0.5/Blue 0.75/Red 0.80). The NC was set to SIT and allowed to run briefly (Flow rate: set to medium, Acquire data 5 seconds→Remove sample from SIT and put on ice) to check the fluorescence parameter graph and target cell range. […]

In assay [4] the test system is miR34a-5p. In words: intracellular miR34a-5p expression by qRT-PCR. The note with it: with/without EGF, with/without Y27632. The assay is classed as cell-based, human. The text has this: (§4) Y27632 was used as a ROCK inhibitor.
(§5) Culture conditions conform to Examples 1 and 2.
(§6) The results of miR184, miR34, miR378, and miR146 gene expression variations in the presence or absence of EGF and in the presence or absence of Y by qRT-PCR are shown in FIGS. 17 and 18.

Assay [5] has as its system IL-8. As to the kind of experiment: ELISA IL-8 in culture supernatant. Type of assay: cell-based, human.
Excerpt: as §1, §2, §3

Assay [6] relates to cultured human corneal endothelial cells CT09. As to the kind of experiment: effects of additives, lot CT09 P5 (photographs, FACS, ELISA). The assay is classed as cell-based. As to conditions: CT09 P5, conditions 1 to 5, Day 34 FACS, PDGF-bb and IL-8 1st to 5th week.
Excerpt: as §1

Assay [7] concerns miR184. As to the kind of experiment: intracellular miR184 expression by qRT-PCR. The assay is classed as cell-based, human. The note with it: with/without EGF, with/without Y27632.
Excerpt: as §4, §5, §6
For orientation: Real-time PCR tracks product formation cycle by cycle.

Assay [8] concerns IL-6, IL-8 and MIP-1b. In words: cytokine measurement (BioPlex) in culture supernatant. Type of assay: cell-based, human. As to conditions: #190318.
Assay [9] deals with cultured endothelial cells. As to the kind of experiment: measurement of metabolites in culture supernatant (CE-TOFMS, CE-MS/MS). The assay is classed as cell-based, human. Here is the method: In this Example, differences between the metabolite properties of functional human corneal endothelial cells and the metabolite properties of non-intended cells were confirmed.
For measurement of metabolites in culture supernatant (CS), an 80 μL Milli-Q (Merck1 KGaA, Darmstadt, Germany) containing 20 μL of CS and internal standard solution 1 (H3304-1002; Human Metabolome Technologies, Inc., Yamagata, Japan), was thoroughly mixed. Cationic compounds were measured by CE time-of-flight mass spectrometry (CE-TOFMS) in positive mode, and anionic compounds were measured by CE tandem MS (CE-MS/MS) in positive and negative modes. Hierarchical cluster analysis (HCA) was performed using the proprietary software “PeakStat”. Differences in values were analyzed statistically using Student's t-test or one-way analysis of variance (ANOVA) with Bonferroni's post hoc test (GraphPadPrism 6.0, GraphPad software). A p-value of <0.05 was considered statistically significant.
The effect of adding a ROCK inhibitor was determined according to Example 3.

Assay [10] has as its system mitochondrial respiration (OXPHOS) of HCEC. In words: mitochondrial respiratory capacity of cHCEC. The assay is classed as cell-based, human. As to conditions: HCEC passages 2-5. The text has this: As used herein, “mitochondria dependent oxidative phosphorylation” is also called “mitochondria OXPHOS” and refers to a reaction of oxidative phosphorylation that depends on respiratory activity. As to the reaction associated with “mitochondria OXPHOS”, a extracellular flux analyzer, which analyzes the state of intracellular metabolism, can measure the oxygen consumption rate (OCR), which is an index of OXPHOS activity, the extracellular acidification rate (ECAR), which is an index of glycolytic activity.
Corneal endothelial cells (HCEC) were obtained from donor corneas provided by SightLife (Seattle, Wash., USA), and the HCEC were cultured according to a published protocol (Toda M, Ueno M, et al. Invest Ophthalmol Vis Sci. 2017; 58:2011) with some modifications. HCEC of passages 2-5 were used for all experiments. SPs containing CST were passaged at low cell density. The SPs of cHCEC were identified by cell surface markers (CD24, 44, 105, 166) using phase-contrast microscopy images and flow cytometry.

Where [11] appears, read: #190719 P1 and P2, ROCK inhibitor added 10 days after the start of culture.
The mark [12] stands for this setting: #190719 P4, ROCK inhibitor added at the start of the culture for 3 days.

`C[C@@H](N)[C@H]1CC[C@H](C(=O)Nc2ccncc2)CC1.Cl.Cl.O` (relative stereo) [Y27632, (R)-(+)-trans-(4-pyridyl)-4-(1-aminoethyl)-cyclohexanecarboxamide dehydrochloride monohydrate]: the “PDGF-bb in culture supernatant (weekly)” value in assay [1] was “high PDGF levels and slightly low levels in the P1 growth phase”. For the same molecule, in [1] (setting [11]), the “PDGF-bb in culture supernatant (for each item)” value is reported as “increased from differentiation to maturation”. For the same molecule, the “PDGF-bb in culture supernatant” value in assay [1] (setting [12]) is “at a low level and does not satisfy the standard values”; in [1] (#190802) it was “increased dependently on differentiation and induction by a ROCK inhibitor”. In addition, the “adhesion to the incubator after seeding” value in [2] (P0, Y+ vs Y−) is recorded as “promoted the adhesion to the incubator after seeding the cells”. The “difference between cultures on the 14th day” value in assay [2] (Y27632 added for the first time after the 4th day vs from seeding) is listed as “no difference was observed on the 14th day of culture”. Further, the “mature standard cells by FACS” value in [3] (setting [12]) is “no mature standard cells were detected by FACS”. Further, in assay [3] (ROCK inhibitor added on the 10th day after the start of culture, #190719, #190802, #190318), the “ratio of standard cells (FACS)” value was “higher ratio of standard cells in all of the three experiments”. Also, the miR34a-5p expression level result in assay [4] was “increases with the addition of the ROCK inhibitor”. Moreover, the entries for the “IL-8 in culture supernatant” value in assay [5] (setting [11]) and in assay [5] (setting [12]) were “lowest from differentiation to the maturation stage” and “higher than the standard”, respectively. The “desirable additive condition (overall effects of the additives)” value (shortened to “desirable additive condition”) in [6] is “addition of Y from Day 10”. In addition, the miR184 expression level result in assay [7] is on record as “increases with the addition of the ROCK inhibitor”.
On to `NC(=O)c1ccc(-c2nc(-c3ccc4c(c3)OCO4)c(-c3ccccn3)[nH]2)cc1` [SB4], for which the “desirable additive condition” value in assay [6] is recorded as “addition of SB4”.
Consider `C[S+]([O-])c1ccc(-c2nc(-c3ccncc3)c(-c3ccc(F)cc3)[nH]2)cc1` (stereo not drawn) [SB203580], for which the “PDGF-bb in culture supernatant (for each item)” value in [1] (#190318, SB2 not added) is reported as “high PDGF levels at 3 w”. The “PDGF-bb in culture supernatant (weekly)” value in assay [1] is “little relation to the presence or absence of SB203580”. Further, the “IL-8 in culture supernatant (weekly)” value in [5] (#190318) is “varies almost depending on the presence or absence of SB2”. The “IL-8 in culture supernatant” value in assay [5] (#190802) is listed as “decreased dependently on a p38 MAPK inhibitor”. In addition, the “desirable additive condition” value in assay [6] is reported as “no addition of SB2 or the addition thereof only at the final stage of culture”. Also, the “IL-6, IL-8 and MIP-1b in culture supernatant (BioPlex)” value in assay [8] is “dependent on the p38 MAPK inhibitor”.
In the case of “EGF: epidermal growth factor, a type of cell growth factor”, the “ratio of corneal endothelial cells of the present disclosure (FACS)” value in assay [3] (EGF (−) or 0.5 ng/mL from primary culture, P0 to P2, donor #214) is recorded as “increases when EGF is not added”. In [3] (EGF (−), 0.5, 1, 5 ng/mL, passages P2 to P4, donor #202), the “cell shape under microscopy and cell surface CD antigen trait” value is “no addition of EGF was desirable at any passage from P2 to P4”. The standard cell ratio result in assay [3] (EGF addition, HCEC passages 2-5) is given as “lowers the standard cell ratio”. Moreover, the miR34a-5p expression level entry in assay [4] is “increases with no EGF addition than with EGF addition”. The “Lactic Acid and L/P (lactic acid/pyruvic acid) ratio; anaerobic glycolytic activity” value in assay [9] was “non-intended cell profile with high anaerobic glycolytic activity due to the addition of EGF”. Besides, in [9] (EGF added), the “metabolite profile of cultured endothelial cells” value is given as “showed a non-intended cell profile by adding EGF”. The “amount of branched chain amino acids (Ile, Leu) produced” value in assay [9] (amount of EGF added varied) was “decreased when the amount of EGF added was reduced”. Besides, the “desirable additive condition” value in assay [6] was “no addition of EGF”. Besides, the “mitochondrial respiratory capacity and oxidative phosphorylation (OXPHOS)” value in assay [10] was “reduces mitochondrial respiratory capacity and oxidative phosphorylation (OXPHOS)”. Besides, the miR184 expression level entry in assay [7] is recorded as “increases with no EGF addition than with EGF addition”.
